# According to patent US20180148648A1, “REACTIVE MESOGENS” (Merck Patent GmbH, priority 2015, published 2018):
# Assay: Yellowing study by UV-Vis percentage transmission after UV exposure
# Assay type: physicochemical
# Details: 1 wt. % in dichloromethane; percentage transmission across visible range; cured at 0, 100, 500, 1000 and 3000 mJ; FIG. 2
# Text: UV-Vis spectroscopy was used to measure the compound yellowing by measuring the percentage transmission for each of the compounds across the visible range. This was done by dissolving 1 wt. % of each compound in a solvent, usually dichloromethane, and measuring the solutions percentage transmission on the Hitachi UV-Vis spectrometer, with air as a baseline. The solutions were then cured at a variety of different doses (0, 100, 500, 1000 and 3000 mJ) and the transmission measured again.
# Anhydrous dichloromethane was used to dissolve the mixtures, as it remains unaffected when exposed to UV light. By comparing these percentage transmissions it could be concluded, which compound yellow and to what extent.
row,SMILES,change in yellowing when exposed to UV-light
1,C=CC(=O)OCCCCCCOc1ccc(C(=O)Oc2ccc(C#Cc3ccc(OC)cc3)cc2F)cc1 [RM-1],least amount of change in yellowing
2,C=CC(=O)OCCCCCCOc1ccc(C(=O)Oc2ccc(C#Cc3ccc(OC)cc3)cc2Cl)cc1 [A],least amount of change in yellowing
3,C=CC(=O)OCCCCCCOc1ccc(C(=O)Oc2ccc(C#Cc3ccc(OC)cc3)cc2C)cc1 [B],significant increase in yellowing
